The values that follow come from patent publication US7166622B2, “Substituted phenylsulfonamide inhibitors of beta amyloid production” (Wyeth, priority 2002, dated 2007).

The test system of one data set is beta amyloid production. Nature of the data set: Repressor Release Assay (RRA). Type of data set: cell-based. The following applies: for fold induction at 20 µg/mL / fold induction at 10 µg/mL / fold induction at 3 µg/mL: read-out: APPI Fold Increase; for APPI % of Example #98: relative to Example 98. The method in brief: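 Read-out is luciferase luminescence (RLU) after 36-48 h duplicate compound exposure of transfected CHO-K1 cells. These cells carry transiently introduced APP-lacI and pRSVO-luc DNA. Diluent control was 25 mM Hepes/1% DMSO; toxicity recorded as binary score (1 non-toxic, 0 toxic).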

Another data set deals with CHO-K1 cells. Nature of the data set: Toxicity in RRA (loss of luciferase signal). The following applies: toxicity = loss of signal (<0.75 fold increase).
The mark [1] stands for this setting: Conc 20 μg/ml, luciferase activity (RLU) over diluent control.
Setting [2] is: Conc 20 μg/ml, 1=non-toxic, 0=toxic.
[3] abbreviates: Conc 20 μg/ml, luciferase activity over diluent control.
The mark [4] stands for this setting: Conc 10 μg/ml, luciferase activity over diluent control.
[5] abbreviates: Conc 3 μg/ml, luciferase activity over diluent control.

Where “and” joins values, the source holds several entries; their conditions need not be identical. Equal entries are not always repeated. Where two headings read alike, the source gives them in different places.

Description for CHO-K1 cells: The beta amyloid inhibitory activity of the compounds of the present invention was determined using the Repressor Release Assay (RRA).
“Fold Increase” refers to the amount of luciferase activity (measured in relative light units) over diluent control. “SEM” refers to the standard error of the mean for fold increase.

On to `CCC[C@H](c1ccccc1)[C@@H](CO)NS(=O)(=O)c1ccc(Cl)cc1` [Example 59, 4-chloro-N-[(1S,2R)-1-(hydroxymethyl)-2-phenylpentyl]benzenesulfonamide], for which, in the data set with beta amyloid production (setting [1]), the fold induction at 20 µg/mL amounted to 3.2. In the data set on CHO-K1 cells (setting [2]), the “(%)APPI Toxicity” value is 1 (1=non-toxic).
`O=S(=O)(N[C@H](CO)c1ccccc1)c1ccc(Br)cc1` [Example 101, 4-bromo-N-[(1S)-2-hydroxy-1-phenylethyl]benzenesulfonamide]: in the data set on beta amyloid production (setting [3]), the fold induction at 20 µg/mL is 1.6. In addition, the “(%)APPI Toxicity” value in the data set with CHO-K1 cells (Conc 20 μg/ml) is listed as 1 (1=non-toxic).
For the compound `CC[C@H](C)[C@@H](CO)N(CCSC)S(=O)(=O)c1ccc(Cl)cc1` [Example 47, 4-chloro-N-[(1S,2S)-1-(hydroxymethyl)-2-methylbutyl]-N-[2-(methylthio)ethyl]benzenesulfonamide], the fold induction at 20 µg/mL with beta amyloid production (setting [3]) was 2.4. Moreover, in the data set with CHO-K1 cells (Conc 20 μg/ml), the “(%)APPI Toxicity” value is given as 1 (1=non-toxic).
In the case of `CC[C@H](C)[C@H](NS(=O)(=O)c1ccc(Br)cc1)C(O)(CC)CC` [Example 217, 4-bromo-N-{(1S)-2-ethyl-2-hydroxy-1-[(1S)-1-methylpropyl]butyl}benzenesulfonamide], in the data set with beta amyloid production (setting [4]), the fold induction at 10 µg/mL is 1.68. Moreover, in the data set with CHO-K1 cells (Conc 10 μg/ml), the “(%)APPI Toxicity” value was 1 (1=non-toxic).
For “3-chloro-N-{(1S,3E)-2-hydroxy-3-methyl-2-[(1 F)-1-methyl-1-propenyl]-1-[(1S)-1-methylpropyl]-3-pentenyl}benzenesulfonamide [Example 259]”, the “APPI Fold Increase” value in the data set on beta amyloid production (Conc 0.3 μg/ml, luciferase activity over diluent control) is 1.7 fold; in the data set with beta amyloid production (Conc 1 μg/ml, luciferase activity over diluent control) it was 1.7 fold; in the data set with beta amyloid production (setting [5]) it was 1.7 fold; in the data set on beta amyloid production (setting [4]) it was 2.19 fold and 1.6 fold and 1.7 fold; in the data set with beta amyloid production (setting [3]), 4.4 fold. Moreover, the “APPI % of Example #98” value amounted to 31.1% with beta amyloid production (Conc 0.3 μg/ml), 31.1% in the data set on beta amyloid production (Conc 1 μg/ml), 31.5% in the data set on beta amyloid production (Conc 3 μg/ml) and 119.7% in the data set with beta amyloid production (Conc 20 μg/ml). Further, the “(%)APPI Toxicity” value in the data set on CHO-K1 cells (Conc 0.3 μg/ml), in the data set with CHO-K1 cells (Conc 1 μg/ml), in the data set with CHO-K1 cells (Conc 3 μg/ml), in the data set with CHO-K1 cells (Conc 10 μg/ml) and in the data set with CHO-K1 cells (Conc 20 μg/ml) was 1 (1=non-toxic) in each case.
Consider `CC[C@H](C)[C@H](NS(=O)(=O)c1ccc(Br)cc1)C(O)CCC1OCCCO1` (stereo partly drawn) [Example 160, 4-bromo-N-{(1S)-4-(1,3-dioxan-2-yl)-2-hydroxy-1-[(1S)-1-methylpropyl]butyl} benzenesulfonamide], for which the “APPI Fold Increase” value with beta amyloid production (setting [4]) came out at 1.66 fold. The “APPI % of Example #98” value with beta amyloid production (Conc 10 μg/ml) is reported as 73.83%. Besides, in the data set with CHO-K1 cells (Conc 10 μg/ml), the “(%)APPI Toxicity” value is 1 (1=non-toxic).
As to `CCCCC[C@H](CC)[C@@H](CO)NS(=O)(=O)c1ccc(Cl)cc1` [Example 61, 4-chloro-N-[(1S,2S)-2-ethyl-1-(hydroxymethyl)-heptyl]benzenesulfonamide], the fold induction at 20 µg/mL with beta amyloid production (setting [1]) was found to be 6.5. Further, the “(%)APPI Toxicity” value in the data set on CHO-K1 cells (setting [2]) is recorded as 1 (1=non-toxic).
For `C=CCCC(O)(CCC=C)[C@@H](NS(=O)(=O)c1ccc(Br)cc1)[C@@H](C)CC` [Example 221, 4-bromo-N-{(1S)-2-(3-butenyl)-2-hydroxy-1-[(1S)-1-methylpropyl]-5-hexenyl}benzenesulfonamide], in the data set on beta amyloid production (setting [4]), the fold induction at 10 µg/mL is 5.73. Besides, the “(%)APPI Toxicity” value in the data set on CHO-K1 cells (Conc 10 μg/ml) is on record as 1 (1=non-toxic).
Regarding `CC[C@H](C)[C@@H](CO)NS(=O)(=O)c1ccc(Br)cc1` [Example 98, 4-bromo-N-[(1S,2S)-1-(hydroxymethyl)-2-methylbutyl]-benzenesulfonamide], the fold induction at 3 µg/mL with beta amyloid production (setting [5]) was 1.79. Also, the “(%)APPI Toxicity” value in the data set on CHO-K1 cells (Conc 3 μg/ml), in the data set with CHO-K1 cells (Conc 10 μg/ml) and with CHO-K1 cells (Conc 20 μg/ml) was 1 (1=non-toxic) in each case.
`CC[C@@H](c1ccccc1)[C@@H](CO)NS(=O)(=O)c1ccc(Br)cc1` [Example 83, 4-bromo-N-[(1S,2S)-1-(hydroxymethyl)-2-phenylbutyl]benzenesulfonamide]: the fold induction at 20 µg/mL in the data set on beta amyloid production (setting [1]) came out at 3.4. For the same compound, in the data set on CHO-K1 cells (setting [2]), the “(%)APPI Toxicity” value is 1 (1=non-toxic).
Take `O=S(=O)(N[C@@H](CO)c1ccc(O)cc1)c1ccc(Br)cc1` [Example 17, 4-bromo-N-[(1R)-2-hydroxy-1-(4-hydroxyphenyl)ethyl]benzenesulfonamide]: the fold induction at 20 µg/mL with beta amyloid production (setting [3]) was 2.2. Besides, the “(%)APPI Toxicity” value in the data set on CHO-K1 cells (Conc 20 μg/ml) is 1 (1=non-toxic).
In the same order, the values of `CC(C)C[C@H](CO)NS(=O)(=O)c1ccc(Br)cc1` [Example 102, 4-bromo-N-[(1R)-1-(hydroxymethyl)-3-methylbutyl]benzenesulfonamide] are 1.5 and 1 (1=non-toxic).
As for `CCC[C@H](C)[C@@H](CO)NS(=O)(=O)c1ccc(Cl)cc1` [Example 54, 4-chloro-N-[(1S,2S)-1-(hydroxymethyl)-2-methylpentyl]benzenesulfonamide], the fold induction at 20 µg/mL with beta amyloid production (setting [1]) turned out to be 5. The “(%)APPI Toxicity” value with CHO-K1 cells (setting [2]) is on record as 1 (1=non-toxic).
In the case of `CCCCC(CO)NS(=O)(=O)c1ccc(Br)cc1` (centres unmarked) [Example 99, 4-bromo-N-[1-(hydroxymethyl)pentyl]benzenesulfonamide], the fold induction at 20 µg/mL in the data set on beta amyloid production (setting [3]) turned out to be 1.7. The “(%)APPI Toxicity” value with CHO-K1 cells (Conc 20 μg/ml) is reported as 1 (1=non-toxic).
As to `CCC(O)[C@@H](NS(=O)(=O)c1ccc(Br)cc1)[C@@H](C)CC` (stereo partly drawn) [Example 153, 4-bromo-N-{(1S)-2-hydroxy-1-[(1S)-1-methylpropyl]butyl}benzenesulfonamide], the fold induction at 3 µg/mL in the data set on beta amyloid production (setting [5]) stood at 2. Further, the fold induction at 10 µg/mL in the data set on beta amyloid production (setting [4]) stood at 4.77. For the same compound, the “(%)APPI Toxicity” value in the data set on CHO-K1 cells (Conc 3 μg/ml) and with CHO-K1 cells (Conc 10 μg/ml) was 1 (1=non-toxic) throughout.
In the case of `CC[C@H](C)[C@H](NS(=O)(=O)c1cccc(Cl)c1)C(O)(c1ccc(OC)cc1)c1ccc(OC)cc1` [Example 258, 3-chloro-N-((1S,2S)-1-{hydroxy [bis(4-methoxyphenyl)]methyl}-2-methylbutyl)benzenesulfonamide], the fold induction at 10 µg/mL in the data set on beta amyloid production (setting [4]) was 1.72. For the same compound, the “(%)APPI Toxicity” value with CHO-K1 cells (Conc 10 μg/ml) is on record as 1 (1=non-toxic).
For the compound `CCCCC(O)(CCCC)[C@@H](NS(=O)(=O)c1cccc(Cl)c1)[C@@H](C)CC` [Example 251, N-{(1S)-2-butyl-2-hydroxy-1-[(1S)-1-methylpropyl]hexyl}-3-chlorobenzenesulfonamide], the fold induction at 10 µg/mL in the data set on beta amyloid production (setting [4]) came to 3.4. In addition, the “(%)APPI Toxicity” value in the data set with CHO-K1 cells (Conc 10 μg/ml) was 1 (1=non-toxic).
As to `CC[C@H](C)[C@H](NS(=O)(=O)c1ccc(Cl)cc1)C(C)(C)O` [Example 223, 4-chloro-N-[(1S,2S)-1-(1-hydroxy-1-methylethyl)-2-methylbutyl]benzenesulfonamide], the fold induction at 10 µg/mL in the data set with beta amyloid production (setting [4]) turned out to be 2.33. Moreover, the “(%)APPI Toxicity” value in the data set with CHO-K1 cells (Conc 10 μg/ml) was 1 (1=non-toxic).
In the case of `CC[C@H](C)[C@@H](CO)N(CC#Cc1ccccc1)S(=O)(=O)c1ccc(Cl)cc1` [Example 48, 4-chloro-N-[(1S,2S)-1-(hydroxymethyl)-2-methylbutyl]-N-(3-phenylprop-2-ynyl) benzenesulfonamide], the “APPI Fold Increase” value in the data set with beta amyloid production (setting [3]) is listed as 3.1 fold. In addition, the “APPI % of Example #98” value in the data set on beta amyloid production (Conc 20 μg/ml) was determined as 116.6%. For the same compound, in the data set on CHO-K1 cells (Conc 20 μg/ml), the “(%)APPI Toxicity” value is recorded as 1 (1=non-toxic).
Turning to `CC[C@H](C)[C@H](NS(=O)(=O)c1ccc(Cl)cc1)C(O)C(C)(C)C` (stereo partly drawn) [Example 172, 4-chloro-N-{(1S)-2-hydroxy-3,3-dimethyl-1-[(1S)-1-methylpropyl]butyl}benzenesulfonamide], in the data set on beta amyloid production (setting [4]), the fold induction at 10 µg/mL was 2.51. The “(%)APPI Toxicity” value in the data set on CHO-K1 cells (Conc 10 μg/ml) is on record as 1 (1=non-toxic).
Taken in the same sequence, the figures for `CCCCCC(O)[C@@H](NS(=O)(=O)c1cccc(Cl)c1)[C@@H](C)CC` (stereo partly drawn) [Example 188, 3-chloro-N-{(1S)-2-hydroxy-1-[(1S)-1-methylpropyl]heptyl}benzenesulfonamide] were 3.54 and 1 (1=non-toxic).
Take `CC[C@H](C)[C@H](NS(=O)(=O)c1ccc(F)cc1)C(C)(C)O` [Example 235, 4-fluoro-N-[(1S,2S)-1-(1-hydroxy-1-methylethyl)-2-methylbutyl]benzenesulfonamide]: the fold induction at 10 µg/mL in the data set with beta amyloid production (setting [4]) is 1.88. The “(%)APPI Toxicity” value in the data set on CHO-K1 cells (Conc 10 μg/ml) is given as 1 (1=non-toxic).
On to `C=CCCC(O)[C@@H](NS(=O)(=O)c1ccc(Cl)cc1)[C@@H](C)CC` (stereo partly drawn) [Example 180, 4-chloro-N-{(1S)-2-hydroxy-1-[(1S)-1-methylpropyl]-5-hexenyl}benzenesulfonamide], for which the fold induction at 10 µg/mL in the data set with beta amyloid production (setting [4]) was found to be 1.69. The “(%)APPI Toxicity” value with CHO-K1 cells (Conc 10 μg/ml) is given as 1 (1=non-toxic).
On to `CC[C@H](C)[C@@H](CO)NS(=O)(=O)c1ccc(Br)c(Br)c1` [Example 22, 3,4-dibromo-N-[(1S,2S)-1-(hydroxymethyl)-2-methylbutyl]benzenesulfonamide], for which the fold induction at 20 µg/mL with beta amyloid production (setting [3]) was found to be 1.7. Also, the “(%)APPI Toxicity” value in the data set on CHO-K1 cells (Conc 20 μg/ml) is 1 (1=non-toxic).
For `CC[C@H](C)[C@@H](CO)NS(=O)(=O)c1ccc(Cl)cc1` [Example 91, 4-Chloro-N-[(1S,2S)-1-(hydroxymethyl)-2-methylbutyl]benzenesulfonamide], the fold induction at 3 µg/mL in the data set with beta amyloid production (setting [5]) came to 1.71. In the data set with beta amyloid production (setting [4]), the fold induction at 10 µg/mL is 2.38. Moreover, the “(%)APPI Toxicity” value in the data set with CHO-K1 cells (Conc 3 μg/ml), with CHO-K1 cells (Conc 10 μg/ml) and in the data set on CHO-K1 cells (Conc 20 μg/ml) was 1 (1=non-toxic) throughout.
